BindingDB's records for patent US20250270173 (Gilgamesh Pharmaceuticals, 2025)

Molecular target: 5-hydroxytryptamine receptor 2A (Homo sapiens, UniProt P28223)
Assay: 5-HT2A Receptor Binding Assay

Sequence of 5-hydroxytryptamine receptor 2A (P28223 whole entry): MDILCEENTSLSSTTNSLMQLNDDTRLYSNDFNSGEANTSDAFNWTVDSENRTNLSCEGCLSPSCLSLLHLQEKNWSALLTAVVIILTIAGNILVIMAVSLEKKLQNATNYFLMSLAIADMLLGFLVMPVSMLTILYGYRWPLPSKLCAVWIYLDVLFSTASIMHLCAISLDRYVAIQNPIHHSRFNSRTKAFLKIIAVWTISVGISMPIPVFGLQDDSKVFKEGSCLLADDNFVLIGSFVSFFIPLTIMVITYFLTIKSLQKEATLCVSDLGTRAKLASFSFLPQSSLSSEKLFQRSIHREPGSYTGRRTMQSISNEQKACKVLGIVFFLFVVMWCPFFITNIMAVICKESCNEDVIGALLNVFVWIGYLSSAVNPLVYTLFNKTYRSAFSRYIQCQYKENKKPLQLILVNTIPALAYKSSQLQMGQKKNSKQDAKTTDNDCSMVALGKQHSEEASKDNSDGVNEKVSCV

| SMILES | Ki |
| --- | --- |
| COc1cc(C)c(OC)nc1CC(C)N (configuration not stated) [US20250270173, Compound 5] | 1.17 µM |
| COc1cc(Br)c(OC)nc1CC(C)N (configuration not stated) [US20250270173, Compound 6] | 0.168 µM |
| COc1cc(C)c(OC)nc1CCN [US20250270173, Compound 8] | 1.12 µM |
| COc1cc(Br)c(OC)nc1CCN [US20250270173, Compound 9] | 0.0992 µM |
| CCCCCc1nc(OC)c(CC(N)CC)cc1OC (configuration not stated) [US20250270173, Compound 11] | 0.273 µM |
| CCCCCc1nc(OC)c(CC(N)CC)nc1OC (configuration not stated) [US20250270173, Compound 12] | 0.693 µM |
| CCSc1cc(OC)c(CCN)nc1OC [US20250270173, Compound 22] | 0.0828 µM |
| CCSc1cc(OC)c(CC(C)N)nc1OC (configuration not stated) [US20250270173, Compound 23] | 0.344 µM |
| CCSc1cc(OC)c(CC(N)CC)nc1OC (configuration not stated) [US20250270173, Compound 24] | 0.649 µM |
| COc1cc(C2CC2)c(OC)nc1CCN [US20250270173, Compound 26] | 0.15 µM |
| CCCCCCc1cc(OC)c(CCN)nc1OC [US20250270173, Compound 29] | 0.00091 µM |
| CCCc1cc(OC)c(CC(N)CC)nc1OC (configuration not stated) [US20250270173, Compound 37] | 0.106 µM |
